In PubChem BioAssay (NCI):
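96-well plates; 48 h exposure; 5 concentrations. Endpoints by linear interpolation between flanking doses. Not reached: highest tested concentration assigned. GI50: concentration for 50% inhibition of growth. TGI: concentration producing complete growth inhibition.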

Legend:
Experiment in all cases: DTP human tumour cell line panel, 48 h
[1] = test system: 786-0 renal
[2] = test system: COLO 205 colon
[3] = test system: OVCAR-4 ovarian
[4] = test system: OVCAR-5 ovarian
[5] = test system: OVCAR-8 ovarian
[6] = test system: TK-10 renal
[7] = test system: UACC-257 melanoma
[8] = test system: UACC-62 melanoma
[9] = test system: UO-31 renal
[10] = test system: NCI/ADR-RES ovarian

SMILES | TGI [1] | TGI [2] | TGI [3] | TGI [4] | TGI [5] | TGI [6] | TGI [7] | TGI [8] | TGI [9] | GI50 [1] | GI50 [2] | GI50 [10] | TGI [10] | GI50 [3] | GI50 [4] | GI50 [5] | GI50 [6] | GI50 [7] | GI50 [9] | GI50 [8]
N#CC12CC3(CCC1CCC1(C2)OCCO1)OCCO3 (stereo not given) | > 100 µM | > 100 µM | > 100 µM | > 100 µM | > 100 µM | > 100 µM | > 100 µM | > 100 µM | > 100 µM | – | – | – | – | – | – | – | – | – | – | –
CC(=O)Nc1ccccc1S(=O)c1ccccc1 (stereo not given) | > 100 µM | > 100 µM | > 100 µM | > 100 µM | > 100 µM | > 100 µM | > 100 µM | > 100 µM | > 100 µM | – | – | – | – | – | – | – | – | – | – | –
COC(=O)C(C(=O)C(=O)Nc1ccc(N)cc1[N+](=O)[O-])c1nc2ccc(Cl)cc2[nH]c1=O (stereo not given) | > 100 µM | > 100 µM | > 100 µM | > 100 µM | > 100 µM | > 100 µM | > 100 µM | > 100 µM | > 100 µM | – | – | – | – | – | – | – | – | – | – | –
COc1ccc2c(c1)C(=O)c1c-2n(CCCNCCO)c(=O)c2cc([N+](=O)[O-])ccc12 | < 0.01 µM | 2.01 µM | 1.19 µM | 0.239 µM | 1.34 µM | 11.8 µM | 1.96 µM | – | – | < 0.01 µM | 0.018 µM | < 0.01 µM | 1.68 µM | 0.0361 µM | < 0.0128 µM | < 0.01 µM | 0.28 µM | 0.0691 µM | – | –
O=C(OCc1ccccc1)c1ccccc1-c1c2ccc(=O)cc-2oc2cc(OCc3ccccc3)ccc12 | 71 µM | 42.8 µM | > 100 µM | > 100 µM | 74 µM | – | 67 µM | 24.6 µM | 55.3 µM | – | – | – | – | – | – | – | – | – | – | –
CC1=C(C(=O)NCc2ccccc2)C(c2ccccc2O)C(C(=O)NCc2ccccc2)=C(C)N1 | 33.7 µM | 30.9 µM | 35.4 µM | 38 µM | 40.9 µM | 34 µM | > 31.6 µM | 34 µM | 30.5 µM | – | – | – | – | – | – | – | – | – | – | –
CCCCCCC(=O)CC(=O)C(=O)Nc1ccccc1C | > 100 µM | > 100 µM | > 100 µM | > 100 µM | > 100 µM | > 100 µM | > 100 µM | > 100 µM | > 100 µM | – | – | – | – | – | – | – | – | – | – | –
C/C(=N\NS(=O)(=O)c1ccccc1)c1ccc[n+]([O-])n1 | > 100 µM | – | > 100 µM | > 100 µM | > 100 µM | – | > 100 µM | > 100 µM | > 100 µM | – | – | – | – | – | – | – | – | – | – | –
Nc1nc(N)c(-c2ccc(Cl)cc2)c(/C=C/c2ccc([N+](=O)[O-])cc2)n1 | 44.9 µM | > 100 µM | > 100 µM | > 100 µM | > 100 µM | – | > 100 µM | – | > 100 µM | 5.81 µM | 6.01 µM | 7.99 µM | > 100 µM | 4.54 µM | 38.2 µM | 4.77 µM | – | 7.51 µM | 21.4 µM | –
CCc1cccc(CC)c1NC(=O)C1=CNC(C)=C(C(=O)Nc2c(CC)cccc2CC)C1c1ccc(O)c(OC)c1 (stereo not given) | > 100 µM | > 100 µM | 91.4 µM | > 100 µM | > 100 µM | > 100 µM | 92.7 µM | – | > 100 µM | – | – | – | – | – | – | – | – | – | – | –
CCN(CC)c1ccc(N=C2C=CC(=C(C#N)C#N)c3ccccc32)c(C)c1 | 6.24 µM | 8.05 µM | 5.63 µM | – | 7.28 µM | 9.58 µM | 5.78 µM | 3.43 µM | 6.95 µM | – | – | – | – | – | – | – | – | – | – | –
O=S1Cc2ccccc2CSS1 (stereo not given) | 29.1 µM | 27.3 µM | 31.7 µM | 37.4 µM | 27.6 µM | 33.2 µM | 29.1 µM | 26.5 µM | 32.6 µM | – | – | – | – | – | – | – | – | – | – | –
CC(C)CC1NC(=O)C(C(C)C)NC(=O)CC(C)COC(=O)C(CC(C)C)N(C)C(=O)C(C(C)C)NC(=O)C(C(C)C)OC1=O (stereo not given) | > 50 µM | > 50 µM | – | > 50 µM | > 50 µM | – | > 50 µM | > 50 µM | > 50 µM | – | – | – | > 50 µM | – | – | – | – | – | – | –
CC(=O)CC(=O)ON(C)C(=O)Cc1ccccc1 | > 100 µM | > 100 µM | > 100 µM | > 100 µM | > 100 µM | > 100 µM | > 100 µM | > 100 µM | > 100 µM | – | – | – | – | – | – | – | – | – | – | –
COc1c(OC2OC(CO)C(O)C(O)C2O)cc2c(c1OC)-c1ccc(OC)c(=O)cc1[C@@H](NC(C)=O)CC2 (stereo not given in full) | > 100 µM | > 100 µM | > 100 µM | > 100 µM | > 100 µM | > 100 µM | > 100 µM | > 100 µM | > 100 µM | – | – | – | – | – | – | – | – | – | – | –
NNC(=O)N/N=C1/C(=O)N(c2ccc(Cl)c(Cl)c2)C(=O)C(=O)C1c1nc2ccccc2o1 (stereo not given) | > 100 µM | > 100 µM | > 100 µM | > 100 µM | > 100 µM | > 100 µM | > 100 µM | > 100 µM | > 100 µM | – | – | – | – | – | – | – | – | – | – | –
Cc1c(C(=O)Nc2ccc(Cl)cc2)nc(N)nc1-c1cccc(Cl)c1 | > 100 µM | > 100 µM | > 100 µM | > 100 µM | > 100 µM | – | > 100 µM | > 100 µM | > 100 µM | – | – | – | – | – | – | – | – | – | – | –
CC1SC(c2cccc(Cl)c2)N(NC(=O)C(O)c2ccccc2)C1=O (stereo not given) | > 100 µM | > 100 µM | > 100 µM | > 100 µM | > 100 µM | > 100 µM | > 100 µM | > 100 µM | > 100 µM | > 100 µM | > 100 µM | – | – | 75.4 µM | > 100 µM | > 100 µM | > 100 µM | > 100 µM | > 100 µM | 39 µM
C=C1C(OCCO)OC2O[C@]3(C)CCC4[C@H](C)CCC1C24OO3 (stereo not given in full) | > 100 µM | 14.3 µM | > 100 µM | > 100 µM | 12.5 µM | – | > 100 µM | > 100 µM | 10.2 µM | 24.5 µM | 2.87 µM | 36 µM | > 100 µM | 6.12 µM | 19.6 µM | 2.16 µM | – | > 100 µM | 2.78 µM | 42.7 µM
COc1ccc([Se]c2ccc(OC)cc2)cc1 | > 100 µM | > 100 µM | – | – | > 100 µM | > 100 µM | > 100 µM | > 100 µM | 9.8 µM | – | – | – | – | – | – | – | – | – | – | –
C=C1CC(CC(=O)C(C)CC2CC(=C)C(=O)O2)OC1=O (stereo not given) | 43.3 µM | 27.1 µM | 30.5 µM | > 100 µM | > 100 µM | 33.9 µM | 30.7 µM | 30.1 µM | > 100 µM | – | – | – | – | – | – | – | – | – | – | –
CC(=O)OC1(C#N)CC2OC1C1NC21 (stereo not given) | > 100 µM | > 100 µM | > 100 µM | > 100 µM | > 100 µM | > 100 µM | – | > 100 µM | > 100 µM | – | – | – | – | – | – | – | – | – | – | –
